Measured values as given in patent US12624068B2, “Exon skipping by peptide nucleic acid derivatives” (OliPass Corporation, priority 2016, dated 2026).
Oligonucleotides are written 5' to 3', each unit as a sugar letter and its base; * is a phosphorothioate linkage, no mark a phosphodiester; rarer units and linkages stand in square brackets, end groups in braces. Plain capitals give the bases only. {Fethoc} = N-terminal Fethoc cap; [C(1O2)] = modified PNA monomer acting as cytosine, C(pOq) type, 1O2; [C(1O5)] = modified PNA monomer acting as cytosine, C(pOq) type, 1O5; [A(5)] = modified PNA monomer acting as adenine, A(p) type, p=5; [A(6)] = modified PNA monomer acting as adenine, A(p) type, p=6; [G(5)] = modified PNA monomer acting as guanine, G(p) type, p=5; [G(6)] = modified PNA monomer acting as guanine, G(p) type, p=6; [PNA-N] = PNA monomer with natural nucleobase (N: the base); {NH2} = C-terminal amide; [G(G)] = code of the source, not defined here; [Lys] = lysine residue in the chain; [Val] = valine residue in the chain; {Piv} = N-terminal pivaloyl group; {Fmoc} = N-terminal Fmoc cap

Tests used:
[1] = system: 10-mer complementary DNA; experiment: Tm between PNA derivatives and 10-mer complementary DNA (N- or C-terminal); assay type: binding; conditions: uncorrected
Method: (§1) A mixed solution of 4 μM 10-mer PNA oligomer and 4 μM complementary 10-mer DNA or RNA in 4 mL aqueous buffer (pH 7.16, 10 mM sodium phosphate, 100 mM NaCl) in 15 mL polypropylene falcon tube was incubated at 90° C. for a minute and slowly cooled down to ambient temperature. Then the solution was transferred into a 4 mL quartz UV cuvette, and subjected to Tm measurement at 260 nm on a UV/Visible spectrophotometer as described in the prior art [PCT/KR2009/001256] or with minor modifications. The DNA and RNA for Tm measurement were purchased from Bioneer (www.bioneer.com, Dajeon, Republic of Korea) and used without further purification.
PNA derivatives of Formula I were evaluated for their binding affinity for 10-mer DNAs complementarily targeting either the N-terminal or C-terminal. The binding affinity was assessed by the Tm value for the duplex between PNA and 10-mer complementary DNA. The duplex between PNA derivatives and DNAs of full complementarity usually show Tm values too high to be reliably determined in aqueous buffer solution. The aqueous buffer solution tends to boil off during Tm measurement.

[2] = system: complementary 10-mer DNA; experiment: Tm of 10-mer model PNA with complementary 10-mer DNA; assay type: binding; conditions: for Tm: 4 μM PNA and 4 μM complementary 10-mer DNA, aqueous buffer pH 7.16, uncorrected; for ΔTm (Tm value - Tm value of PNA 10-1): complementary 10-mer DNA
Method: The 10-mer PNA oligomers in Table 12 were evaluated for their binding affinity for the complementary 10-mer RNA or DNA by measuring Tm values as described below.
as §1

Substance | Tm Value, 10-mer DNA against C-Terminal [1] [°C] | Tm Value, 10-mer DNA against N-Terminal [1] [°C] | Tm [2] [°C] | ΔTm (Tm value - Tm value of PNA 10-1) [2]
Fethoc-TG(6)T-TA(5)A-A(5)TA(5)-CGC(1O2)-AA(5)A-A(5)A-NH2 (TGTTAAATACGCAAAAA; all peptide nucleic acid (PNA), [G(6)] at 2, [A(5)] at 5, 7, 9, 14, 16, [C(1O2)] at 12, 5' {Fethoc}, 3' {NH2}; peptide nucleic acid written N to C) [SCN-ASO 4] | 71.6 | 63.5 | – | –
Fethoc-A(6)TT-TG(5)T-TA(6)C-C(1O2)CT-G(5)G-NH2 (ATTTGTTACCCTGG; all peptide nucleic acid (PNA), [A(6)] at 1, 8, [G(5)] at 5, 13, [C(1O2)] at 10, 5' {Fethoc}, 3' {NH2}; peptide nucleic acid written N to C) [SNAP-ASO 12] | 74.0 | 62.0 | – | –
Fethoc-A(5)GT-G(5)TA(5)-CC(1O2)T-A(5)AA(5)-C-NH2 (AGTGTACCTAAAC; splice-switching; all peptide nucleic acid (PNA), [A(5)] at 1, 6, 10, 12, [G(5)] at 4, [C(1O2)] at 8, 5' {Fethoc}, 3' {NH2}; peptide nucleic acid written N to C) [SCN-ASO 28] | 70.0 | 78.1 | – | –
Fethoc-CTC(1O2)-A(6)TC-CTA(6)-C(1O2)TT-AA(6)C-NH2 (CTCATCCTACTTAAC; all peptide nucleic acid (PNA), [C(1O2)] at 3, 10, [A(6)] at 4, 9, 14, 5' {Fethoc}, 3' {NH2}; peptide nucleic acid backbone) [HIF-ASO 8] | 61.0 | 73.0 | – | –
Piv-Lys-AA(6)C-TTA(6)-TCC(1O2)-TA(6)C-TTA(5)-Val-NH2 (antisense {Piv}[Lys][PNA-A][PNA-A(6)][PNA-C][PNA-T][PNA-T][PNA-A(6)][PNA-T][PNA-C][PNA-C(1O2)][PNA-T][PNA-A(6)][PNA-C][PNA-T][PNA-T][PNA-A(5)][Val]-{NH2}; peptide nucleic acid backbone) [HIF-ASO 10] | 60.0 | 61.0 | – | –
Fethoc-A(5)AG-TG(6)T-A(5)CC(1O2)-TAA-A(5)-NH2 (AAGTGTACCTAAA; splice-switching; all peptide nucleic acid (PNA), [A(5)] at 1, 7, 13, [G(6)] at 5, [C(1O2)] at 9, 5' {Fethoc}, 3' {NH2}; peptide nucleic acid written N to C) [SCN-ASO 24] | 66.0 | 77.0 | – | –
Fethoc-TG(5)T-TA(6)C-C(1O2)CT-GG(5)G-A(5)-NH2 (TGTTACCCTGGGA; all peptide nucleic acid (PNA), [G(5)] at 2, 11, [A(6)] at 5, [C(1O2)] at 7, [A(5)] at 13, 5' {Fethoc}, 3' {NH2}; peptide nucleic acid written N to C) [SNAP-ASO 2] | 87.6 | 76.0 | – | –
Fethoc-CTT-A(5)CG(6)-C(1O2)AA(5)-AA(5)A-C(1O2)AA(5)-NH2 (CTTACGCAAAAACAA; all peptide nucleic acid (PNA), [A(5)] at 4, 9, 11, 15, [G(6)] at 6, [C(1O2)] at 7, 13, 5' {Fethoc}, 3' {NH2}; peptide nucleic acid written N to C) [SCN-ASO 12] | 77.0 | 76.0 | – | –
Fethoc-A(6)GA-A(6)CT-CA(6)T-CC(1O2)T-A(6)CT-TA(6)-NH2 (antisense AGAACTCATCCTACTTA; all peptide nucleic acid (PNA), [A(6)] at 1, 4, 8, 13, 17, [C(1O2)] at 11, 5' {Fethoc}, 3' {NH2}; peptide nucleic acid written N to C) [HIF-ASO 11] | 61.0 | 73.4 | – | –
Fmoc-GTA-G(5)AT-CAC-T-NH2 (GTAGATCACT; all peptide nucleic acid (PNA), [G(5)] at 4, 5' {Fmoc}, 3' {NH2}; model 10-mer peptide nucleic acid written N to C) [PNA 10-5] | – | – | 53 | +2 °C
Fethoc-A(6)TT-TG(G)T-TA(5)C-C(1O2)CT-G(5)-NH2 (antisense ATTTGTTACCCTG; all peptide nucleic acid (PNA), [A(6)] at 1, [G(G)] at 5, [A(5)] at 8, [C(1O2)] at 10, [G(5)] at 13, 5' {Fethoc}, 3' {NH2}; peptide nucleic acid written N to C) [SNAP-ASO 9] | 76.0 | 62.0 | – | –
Piv-A(6)TC-CTA(6)-C(1O2)TT-A(5)AC-NH2 (ATCCTACTTAAC; splice-switching; all peptide nucleic acid (PNA), [A(6)] at 1, 6, [C(1O2)] at 7, [A(5)] at 10, 5' {Piv}, 3' {NH2}; peptide nucleic acid backbone) [HIF-ASO 9] | 59.0 | 60.9 | – | –
Fethoc-C(1O5)TT-A(6)TC-CTA(6)-C(1O2)TT-AA(6)C-NH2 (CTTATCCTACTTAAC; all peptide nucleic acid (PNA), [C(1O5)] at 1, [A(6)] at 4, 9, 14, [C(1O2)] at 10, 5' {Fethoc}, 3' {NH2}; peptide nucleic acid backbone) [HIF-ASO 7] | 61.0 | 69.0 | – | –
Fethoc-AA(5)G-TG(6)T-A(5)CC(1O2)-TAA(5)-A-NH2 (AAGTGTACCTAAA; splice-switching; all peptide nucleic acid (PNA), [A(5)] at 2, 7, 12, [G(6)] at 5, [C(1O2)] at 9, 5' {Fethoc}, 3' {NH2}; peptide nucleic acid written N to C) [SCN-ASO 22] | 65.0 | 74.0 | – | –
Fethoc-CA(6)T-CA(6)T-TTG(5)-TTA(5)-CCC(1O2)-TG(5)-NH2 (CATCATTTGTTACCCTG; all peptide nucleic acid (PNA), [A(6)] at 2, 5, [G(5)] at 9, 17, [A(5)] at 12, [C(1O2)] at 15, 5' {Fethoc}, 3' {NH2}; peptide nucleic acid written N to C) [SNAP-ASO 10] | 68.0 | 61.0 | – | –
Fethoc-AA(5)G-TG(5)T-A(5)CC(1O2)-TA(5)A-A(5)-NH2 (AAGTGTACCTAAA; splice-switching; all peptide nucleic acid (PNA), [A(5)] at 2, 7, 11, 13, [G(5)] at 5, [C(1O2)] at 9, 5' {Fethoc}, 3' {NH2}; peptide nucleic acid written N to C) [SCN-ASO 26] | 72.0 | 75.0 | – | –
Fethoc-G(5)AA(6)-CTT-A(6)TC-CTA(6)-C(1O2)T-NH2 (GAACTTATCCTACT; splice-switching; all peptide nucleic acid (PNA), [G(5)] at 1, [A(6)] at 3, 7, 12, [C(1O2)] at 13, 5' {Fethoc}, 3' {NH2}; peptide nucleic acid backbone) [HIF-ASO 5] | 58.0 | 62.0 | – | –
Fmoc-GTA(5)-GAT-CA(5)C-T-NH2 (GTAGATCACT; all peptide nucleic acid (PNA), [A(5)] at 3, 8, 5' {Fmoc}, 3' {NH2}; model 10-mer peptide nucleic acid written N to C) [PNA 10-3] | – | – | 61 | +10 °C
Fethoc-AAG(6)-TG(6)T-A(5)CC(1O2)-TA(5)A-A-NH2 (AAGTGTACCTAAA; splice-switching; all peptide nucleic acid (PNA), [G(6)] at 3, 5, [A(5)] at 7, 11, [C(1O2)] at 9, 5' {Fethoc}, 3' {NH2}; peptide nucleic acid written N to C) [SCN-ASO 25] | 66.0 | 78.0 | – | –
Fethoc-TA(5)C-CAG(6)-GC(1O2)A-A(5)GG(6)-C-NH2 (antisense TACCAGGCAAGGC; all peptide nucleic acid (PNA), [A(5)] at 2, 10, [G(6)] at 6, 12, [C(1O2)] at 8, 5' {Fethoc}, 3' {NH2}; peptide nucleic acid backbone) [AR-ASO 4] | 84.5 | 84.3 | – | –
Fethoc-GA(5)A-C(1O2)TT-A(5)TC-CTA(5)-CT-NH2 (GAACTTATCCTACT; splice-switching; all peptide nucleic acid (PNA), [A(5)] at 2, 7, 12, [C(1O2)] at 4, 5' {Fethoc}, 3' {NH2}; peptide nucleic acid backbone) [HIF-ASO 4] | 53.4 | 66.0 | – | –
Fethoc-CA(6)T-TTG(5)-TTA(5)-CCC(1O2)-TG(5)-NH2 (antisense CATTTGTTACCCTG; all peptide nucleic acid (PNA), [A(6)] at 2, [G(5)] at 6, 14, [A(5)] at 9, [C(1O2)] at 12, 5' {Fethoc}, 3' {NH2}; peptide nucleic acid written N to C) [SNAP-ASO 8] | 68.0 | 58.0 | – | –
